Legend:
[1] = target: Recombinant human c-KIT kinase (Homo sapiens (Human), UniProt P10721); assay: c-KIT kinase chemiluminescence assay (ADP-Glo); format: biochemical; conditions: ATP 50 μM
Protocol: The c-KIT Kinase Enzyme System (V4498) and ADP-Glo™ Kinase Assay kit (V6930) were purchased from Promega (Madison, WI). DMSO (D2650) was purchased from Sigma-Aldrich (Burlington, MA).
Kinase Reaction: The kinase assay was based on the recommended protocol by c-KIT Kinase Enzyme System from Promega. Recombinant human c-KIT kinase in 3 μL of assay buffer (40 mM Tris pH 7.5, 20 mM MgCl2, 0.1 mg/mL BSA and 50 μM DTT) was added to the test or high control wells and 3 μL of assay buffer was added to the low control wells. The microplate was centrifuged at 800 rotations per minute (rpm) for 60 s and incubated at room temperature (RT) for 30 min. Next, 2 μL of buffered ATP and polyEY substrate solution was added to all wells. The microplate was centrifuged at 800 rpm for 60 s and incubated at RT for 2 h.
ADP detection with ADP-Glo™ Kinase Assay: After the kinase reaction incubation, 5 μL of ADP-Glo™ reagent was added to all wells. The microplate was centrifuged at 800 rpm for 60 s and incubated at RT for 40 min. Ten microliter (10 μL) of Kinase Detection Reagent (Luciferin-Luciferase system) was then added to all wells. The microplate was centrifuged at 800 rpm for 60 s and incubated at RT for 60 min. Kinase activity was measured as increase in luminescence at RT in an Envision plate reader equipped with 560 nm filters and operating in endpoint mode. Data Analysis: Endpoint chemiluminescence from high and low control wells were used to calculate normalized c-KIT activity at various concentrations of test compounds. The normalized activities were fitted to inhibitor-versus-normalized response fit in GraphPad Prism 7 to determine half-maximal inhibitory concentration (IC50) and hill coefficient values (H).
Where I is the inhibitor concentration and H is the Hill coefficient.

M-07e cells = assay: M-07e cellular assay (SCF-mediated cell proliferation); format: cell-based; conditions: Homo sapiens, 72 hours, CellTiter Glo
Protocol: M-07e cells (Creative Bioarray, CSC-C0249) which endogenously express human c-KIT were used to evaluate the effect of compounds on stem cell factor (SCF)-mediated cell proliferation. M-07e cells were cultured in growth media (RPMI+10% FBS+1% penicillin/streptomycin+10 ng/mL GM-CSF) at 5E5-1.5E6 cells/mL, replenishing media every 3-4 days. 1.5E4 cells were seeded per well in 384 well tissue culture treated plates in 20 μL assay media (RPMI+[…]+1% penicillin/streptomycin) without growth factor stimulation and incubated at 37° C. in a CO2 humidity-controlled incubator. Twenty-four hours later, three-fold serially diluted test compounds in media containing SCF (at the previously determined EC90) were added to the plated M-07e cells and incubated for an additional 72 hours. Cell viability was determined by adding 25 μL CellTiter Glo (Promega) to the cells and the luminescence was measured using a Perkin Elmer Envision plate reader. The EC50 was determined using GraphPad Prism. Percent cell growth was determined after normalizing the curve to the mean RLU high control (no compound control wells) at 100% and the mean RLU low control (no SCF control wells) at 0%.

Recombinant human c-KIT kinase, sequence (P10721 26-976): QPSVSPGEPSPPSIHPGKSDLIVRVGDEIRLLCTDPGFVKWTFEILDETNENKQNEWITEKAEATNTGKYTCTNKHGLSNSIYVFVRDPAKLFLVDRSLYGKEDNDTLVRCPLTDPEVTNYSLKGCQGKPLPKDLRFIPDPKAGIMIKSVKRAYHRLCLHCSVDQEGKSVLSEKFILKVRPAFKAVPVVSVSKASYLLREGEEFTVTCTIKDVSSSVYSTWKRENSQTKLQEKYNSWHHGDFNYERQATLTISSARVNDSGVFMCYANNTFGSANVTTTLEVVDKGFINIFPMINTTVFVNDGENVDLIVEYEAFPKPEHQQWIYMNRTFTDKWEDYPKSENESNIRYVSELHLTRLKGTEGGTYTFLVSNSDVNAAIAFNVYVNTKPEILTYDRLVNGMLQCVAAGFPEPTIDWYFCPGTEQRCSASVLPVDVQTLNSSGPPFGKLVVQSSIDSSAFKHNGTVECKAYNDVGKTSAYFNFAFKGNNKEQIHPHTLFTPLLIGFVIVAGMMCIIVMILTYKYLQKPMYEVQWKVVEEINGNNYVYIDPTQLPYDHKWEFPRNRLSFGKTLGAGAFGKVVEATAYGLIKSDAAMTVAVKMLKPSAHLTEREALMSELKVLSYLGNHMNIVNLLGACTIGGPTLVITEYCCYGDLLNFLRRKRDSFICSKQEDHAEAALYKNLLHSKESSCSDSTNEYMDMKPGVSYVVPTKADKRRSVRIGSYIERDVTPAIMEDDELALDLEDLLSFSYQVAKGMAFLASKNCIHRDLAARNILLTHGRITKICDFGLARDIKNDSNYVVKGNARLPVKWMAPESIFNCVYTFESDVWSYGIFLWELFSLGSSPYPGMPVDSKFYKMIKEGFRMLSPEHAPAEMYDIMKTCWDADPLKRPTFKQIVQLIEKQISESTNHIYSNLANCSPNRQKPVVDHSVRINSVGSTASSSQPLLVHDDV

Row | SMILES | IC50 [1] | EC50 (M-07e cells)
1 | Cc1ccc(-c2noc([C@H]3C[C@@H]3F)n2)cc1NC(=O)c1cnn2cc(F)ccc12 [Example 1a] | 100 to 1000 nM | 100 to 1000 nM
2 | Cc1ccc(-c2noc([C@H]3C[C@@H]3F)n2)cc1NC(=O)c1cncn1C [Example 2] | > 1000 nM | > 1000 nM
3 | Cc1ccc(-c2noc(C3C[C@@H]3F)n2)cc1NC(=O)c1cnn2ccc(-c3cnn(C(F)F)c3)cc12 (stereo partly shown) [Example 2a] | – | < 100 nM
4 | Cc1ccc(-c2noc([C@H]3C[C@@H]3F)n2)cc1NC(=O)c1cccnc1 [Example 3] | > 1000 nM | > 1000 nM
5 | Cc1ccc(-c2noc([C@H]3C[C@@H]3F)n2)cc1NC(=O)c1cnc(C)n1C [Example 4] | > 1000 nM | > 1000 nM
6 | Cc1ccc(-c2noc([C@H]3C[C@@H]3F)n2)cc1NC(=O)c1cccnn1 [Example 5] | > 1000 nM | > 1000 nM
7 | Cc1ccc(-c2noc([C@H]3C[C@@H]3F)n2)cc1NC(=O)c1cnn2ccccc12 [Example 6] | < 100 nM | < 100 nM
8 | Cc1ccc(-c2noc([C@H]3C[C@@H]3F)n2)cc1NC(=O)c1cnn2cccnc12 [Example 7] | > 1000 nM | > 1000 nM
9 | Cc1ccc(-c2noc([C@H]3C[C@@H]3F)n2)cc1NC(=O)c1cnc(-c2ccccc2)n1C [Example 14] | 100 to 1000 nM | > 1000 nM
10 | Cc1ccc(-c2noc([C@H]3C[C@@H]3F)n2)cc1NC(=O)c1cnn2ccncc12 [Example 15] | 100 to 1000 nM | 100 to 1000 nM
11 | Cc1ccc(-c2noc([C@H]3C[C@@H]3F)n2)cc1NC(=O)c1cnn(-c2ccccc2)c1 [Example 23] | 100 to 1000 nM | 100 to 1000 nM
12 | Cc1ccc(-c2noc([C@H]3C[C@@H]3F)n2)cc1NC(=O)c1ccnc2ccccc12 [Example 27] | > 1000 nM | > 1000 nM
13 | Cc1ccc(-c2noc([C@H]3C[C@@H]3F)n2)cc1NC(=O)c1cnc2sccn12 [Example 30] | < 100 nM | 100 to 1000 nM
14 | Cc1ncc(C(=O)Nc2cc(-c3noc([C@H]4C[C@@H]4F)n3)ccc2C)s1 [Example 34] | > 1000 nM | > 1000 nM
15 | Cc1ccc(-c2noc([C@H]3C[C@@H]3F)n2)cc1NC(=O)c1cnn(C)c1 [Example 35] | > 1000 nM | > 1000 nM
16 | Cc1ccc(-c2noc([C@H]3C[C@@H]3F)n2)cc1NC(=O)c1cnn2c1CCC2 [Example 36] | > 1000 nM | > 1000 nM
17 | Cc1ccc(-c2noc([C@H]3C[C@@H]3F)n2)cc1NC(=O)c1cnc2n1CCC2 [Example 37] | > 1000 nM | > 1000 nM
18 | CC(=O)Nc1ncc(C(=O)Nc2cc(-c3noc([C@H]4C[C@@H]4F)n3)ccc2C)s1 [Example 38] | 100 to 1000 nM | 100 to 1000 nM
19 | Cc1ccc(-c2noc([C@H]3C[C@@H]3F)n2)cc1NC(=O)c1coc2ccccc12 [Example 39] | > 1000 nM | > 1000 nM
20 | Cc1ccc(-c2noc([C@H]3C[C@@H]3F)n2)cc1NC(=O)c1n[nH]c2ncccc12 [Example 40] | > 1000 nM | > 1000 nM
21 | Cc1ccc(-c2noc([C@H]3C[C@@H]3F)n2)cc1NC(=O)c1cnn2cc(Br)ccc12 [Example 41, 6-bromo-N-(5-(5-((1R,2S)-2-fluorocyclopropyl)-1,2,4-oxadiazol-3-yl)-2-methylphenyl)pyrazolo [1,5-a]pyridine-3-carboxamide] | < 100 nM | 100 to 1000 nM
22 | Cc1ccc(-c2noc([C@H]3C[C@@H]3F)n2)cc1NC(=O)c1cnn2ccc(Br)cc12 [Example 42, 5-bromo-N-(5-(5-((1R,2S)-2-fluorocyclopropyl)-1,2,4-oxadiazol-3-yl)-2-methylphenyl)pyrazolo[1,5-a]pyridine-3-carboxamide] | < 100 nM | 100 to 1000 nM
23 | Cc1ccc(-c2noc([C@H]3C[C@@H]3F)n2)cc1NC(=O)c1cnn2ccc(N3CC4(COC4)C3)cc12 [Example 43] | < 100 nM | < 100 nM
24 | Cc1ccc(-c2noc([C@H]3C[C@@H]3F)n2)cc1NC(=O)c1cnn2ccc(N3CCS(=O)(=O)CC3)cc12 [Example 44] | < 100 nM | < 100 nM
25 | COc1ccc(-n2cc(C(=O)Nc3cc(-c4noc([C@H]5C[C@@H]5F)n4)ccc3C)cn2)cc1 [Example 52] | 100 to 1000 nM | 100 to 1000 nM

Row | SMILES | IC50 [1] | EC50 (M-07e cells)
26 | Cc1ccc(-c2noc([C@H]3C[C@@H]3F)n2)cc1NC(=O)c1cnn2cc(N3CC4(COC4)C3)ccc12 [Example 54] | < 100 nM | < 100 nM
27 | Cc1ccc(-c2noc([C@H]3C[C@@H]3F)n2)cc1NC(=O)c1cnn2ccc(C3CC3)cc12 [Example 55] | < 100 nM | 100 to 1000 nM
28 | Cc1ccc(-c2noc([C@H]3C[C@@H]3F)n2)cc1NC(=O)c1cnn2cc(C3CC3)ccc12 [Example 56] | < 100 nM | 100 to 1000 nM
29 | Cc1ccc(-c2noc([C@H]3C[C@@H]3F)n2)cc1NC(=O)c1cnn2cc(Cl)ccc12 [Example 57] | < 100 nM | 100 to 1000 nM
30 | COc1ccc2c(C(=O)Nc3cc(-c4noc([C@H]5C[C@@H]5F)n4)ccc3C)cnn2c1 [Example 58] | < 100 nM | < 100 nM
31 | Cc1ccc(-c2noc([C@H]3C[C@@H]3F)n2)cc1NC(=O)c1cnn2ccc(Cl)cc12 [Example 59] | < 100 nM | 100 to 1000 nM
32 | COc1ccn2ncc(C(=O)Nc3cc(-c4noc([C@H]5C[C@@H]5F)n4)ccc3C)c2c1 [Example 60] | < 100 nM | < 100 nM
33 | Cc1ccc2c(C(=O)Nc3cc(-c4noc([C@H]5C[C@@H]5F)n4)ccc3C)cnn2c1 [Example 61] | < 100 nM | < 100 nM
34 | Cc1ccc(-c2noc([C@H]3C[C@@H]3F)n2)cc1NC(=O)c1cnn2cc(F)c(Br)cc12 [Example 62] | 100 to 1000 nM | > 1000 nM
35 | C/C=C/c1ccn2ncc(C(=O)Nc3cc(-c4noc([C@H]5C[C@@H]5F)n4)ccc3C)c2c1 [Example 69] | < 100 nM | < 100 nM
36 | Cc1ccc(-c2noc([C@H]3C[C@@H]3F)n2)cc1NC(=O)c1cnn2ccc(CN3CCOCC3)cc12 [Example 70] | < 100 nM | 100 to 1000 nM
37 | Cc1ccc(-c2noc([C@H]3C[C@@H]3F)n2)cc1NC(=O)c1cnn2ccc(C=O)cc12 [Example 71] | < 100 nM | 100 to 1000 nM
38 | Cc1ccc(-c2noc([C@H]3C[C@@H]3F)n2)cc1NC(=O)c1cnn2ccc(CO)cc12 [Example 72] | < 100 nM | 100 to 1000 nM
39 | Cc1ccc(-c2noc([C@H]3C[C@@H]3F)n2)cc1NC(=O)c1cnn2cc(Cl)c(Br)cc12 [Example 73] | > 1000 nM | > 1000 nM
40 | Cc1ccc(-c2noc([C@H]3C[C@@H]3F)n2)cc1NC(=O)c1cnc2n1Cc1ccccc1-2 [Example 99] | – | < 100 nM
41 | Cc1ncc(-c2ccn3ncc(C(=O)Nc4cc(-c5noc([C@H]6C[C@@H]6F)n5)ccc4C)c3c2)c(C)n1 [Example 168] | – | < 100 nM
42 | Cc1ccc(-c2noc(C3C[C@@H]3F)n2)cc1NC(=O)c1cnn2ccc(N3C[C@H](CS(C)(=O)=O)[C@@H]3C)cc12 (stereo partly shown) [Example 172] | – | < 100 nM
43 | Cc1ccc(-c2noc([C@H]3C[C@@H]3F)n2)cc1NC(=O)c1cnc(-c2cnc(N)nc2)o1 [Example 308-64] | – | > 1000 nM
44 | Cc1ccc(-c2nc([C@H]3C[C@@H]3F)cs2)cc1NC(=O)c1cnn2ccc(N3CC4(COC4)C3)cc12 [Example 309] | – | < 100 nM
45 | Cc1ncc(-c2ncc(OC(F)(F)F)cn2)cc1NC(=O)c1cnn2ccc(-c3c(C)nc(N)nc3C)cc12 [Example 364] | – | < 100 nM
46 | Cc1nc(N)nc(C)c1-c1ccn2ncc(C(=O)Nc3cc(-c4noc([C@H]5C[C@@H](OC(F)(F)F)C5)n4)sc3C)c2c1 [Example 368] | – | 100 to 1000 nM
47 | Cc1nc(N)nc(C)c1-c1ccn2ncc(C(=O)Nc3cc(-c4noc(C5CN(C(=O)OC(C)(C)C)C5)n4)sc3C)c2c1 [Example 369] | – | > 1000 nM
48 | Cc1nc(N)nc(C)c1-c1ccn2ncc(C(=O)Nc3cc(-c4noc([C@H]5C[C@@H]5F)n4)sc3C)c2c1 [Example 370] | – | > 1000 nM
49 | Cc1nc(N)nc(C)c1-c1ccn2ncc(C(=O)Nc3cc(-c4noc(C5CN(C(=O)[C@H]6C[C@@H]6F)C5)n4)sc3C)c2c1 [Example 371] | – | > 1000 nM
50 | Cc1nn(-c2ccc(C3CC3)cc2)cc1NC(=O)c1cnn2ccc(N3CC4(COC4)C3)cc12 [Example 372] | – | > 1000 nM

— US20250059174A1, “Pharmaceutical Compounds and Compositions as C-Kit Kinase Inhibitors” (Enanta Pharmaceuticals, Inc., priority 2023, published 2025)
